We go through eight compounds from patent US20100168112A1, “2-Substituted and 4-substituted aryl nitrone compounds” (RENOVIS, INC., priority 2004, published 2010).

Like-named read-outs stand apart in the source and are kept apart here.

As usually defined, the Cmax is the maximum level reached in the sampled fluid or tissue. Broadly, the Tmax is the time at which the peak concentration occurs. Broadly, the bioavailability is the share of a dose that reaches the circulation, judged against a reference dose that is usually intravenous.

Data set [1] can be described thus: DPPH free radical-scavenging/antioxidant assay. The data set is classed as biochemical. Particulars: 50 μM DPPH in 80% methanol; 24 h time point; read-out: EC50 (concentration at which a compound reduces by 50% the peak absorbance of DPPH at 520 nm). Summed up:
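Compounds diluted 100-fold from DMSO stocks into 50 μM DPPH in 80% methanol; absorbance at 520 nm followed kinetically to steady state, with the 24 h reading used. EC50 interpolated from OD520 versus concentration; Trolox, BHA, PBN and S-PBN as positive controls, DMSO as vehicle.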
On the technique in general: The DPPH test is a chemical assay of radical scavenging.

A short description of data set [2]: Solubility measurement at pH 7.4. It is filed as physicochemical. Particulars: aqueous buffer, thermodynamic from solid, phosphate buffer pH 7.4, room temperature. How it is done:
Nitrone compounds (>3 mg) of this invention were mixed with a phosphate buffer at pH 7.4 to make a >0.3 mg/mL mixture. The mixture was vortexed for more than 2 hours and equilibrated over 12 hours at room temperature. The equilibrated mixture was used to saturate a 0.45 μm Tuffryn syringe filter. After saturating, the remainder of the mixture was filtered through the saturated filter. The filtrate was diluted by 1, 10, 100, and 1000 fold and analyzed using a LC/MS/MS method with standard curve ranging from 1 to 1000 ng/mL.

Data set [3] is described as follows: Microsomal stability in human liver microsomes. It is filed as in vitro ADME. Particulars: NADPH, 37° C. How it is done:
Frozen Sprague-Dawley rat liver microsomes (RLM) were thawed on ice and gently mixed before use. The final reaction mixture consisted of a nitrone compound of this invention (at ˜500 ng/ml), 1 mM NADPH, and 0.5 mg/ml of RLM protein in 0.1 M PBS (pH7.4), with organic solvent concentration not exceeding 1% (v/v). Per set of incubations, a positive control compound was included. The mixture was first pre-incubated 3 to 5 minutes at 37° C. without NADPH, and the reaction was then initialized by the addition of NADPH and incubated at 37° C. for up to 30 minutes. An aliquot of the reaction mixture was sampled at the initiation of the reaction and at designated time after reaction started. The drawn samples were quenched with acetonitrile, diluted with mobile phase to ensure the detection of test article in the linear range, and analyzed by LC/MS/MS. Half-life or percentage of remaining nitrone compound was calculated using standard methods. A similar method, or a slight variation of it, was used to test the stability of nitrones in human liver microsomes (HLM).

Data set [4] is described as follows: Pharmacokinetic evaluation following intravenous and oral administration in rats. It is filed as in vivo. Particulars: male, Sprague-Dawley; for Cmax / Tmax / bioavailability: 5 mg/kg; for Cmax: rat plasma; for Cmax / Tmax: oral gavage, 2 mg/mL at 2.5 mL/kg; for clearance / Vd / Tmax / bioavailability / half-life: plasma, rat; for clearance / Vd / half-life: 1 mg/kg; for clearance / Vd: intravenous administration, 1 mg/mL at 1.0 mL/kg; for clearance: read-out: CI (clearance) (converted); for Vd: read-out: Vd (volume of distribution); for bioavailability: po 2 mg/mL at 2.5 mL/kg vs iv 1 mg/mL at 1.0 mL/kg, dose-normalized, read-out: F (%) oral bioavailability; for half-life: intravenous, read-out: T1/2 elimination half life (converted). Summed up: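 Male Sprague-Dawley rats, fasted, dosed iv (1 mg/mL formulation, 1.0 mL/kg, jugular or tail vein) or by oral gavage (2 mg/mL suspension, 2.5 mL/kg). Plasma sampled from 2 min to 480 min, some to 24 h, and quantified by LC-MS/MS (MRM). Parameters from noncompartmental analysis.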

Another data set concerns CCI rats. As to the kind of experiment: Mechanical allodynia in mononeuropathic pain model (chronic constrictive injury, CCI, Bennett model). It is filed as in vivo, SD rats. Particulars: for PWT ipsilateral hind paw (von Frey): 50 mg/kg p.o. single dose, mean ± SEM; for anti-allodynic effect on ipsilateral hind paw vs vehicle (in words): single dose 50 mg/kg, p.o. The text has this: Adult male SD rats weighing 250-300 gm (Charles River Laboratories, San Diego, Calif.) were used. The animal room was lighted artificially at a 12-hr light-dark cycle (7:00 A.M. to 7:00 P.M) with water and food supply ad libitum. Animals were allocated randomly into groups. Seven days before establishing the mononeuropathic pain disease model, rats were trained on a metal mesh floor, covered with a plastic box (10×10×18 cm) 1-2 hr per day to habituate. During the habituating phase, non-painful tactile stimulation on the plantar surface of each hind paw was induced by a set of calibrated von Frey filaments, through the mesh floor, as described in example 2.
Following the 7-day training phase, the animals were anesthetized by i.p. injection of sodium pentobarbital (65 mg/kg, Abbott Lab, Chicago, Ill.). Under aseptic procedures, the skin of the left thigh was cut open for ˜2 cm. Mid-thigh level of the common sciatic nerve was exposed after blunt separation of the muscles. Two 4-0 silk and one 4-0 chromic gut sutures (both from Ethicon, Somerville, N.J.) were loosely ligated around the nerve, with a 1-1.5 mm interval between each of them. Skin wound was then close with wound clips. The right side (i.e., the contralateral side) was not surgically injured. After recovery from surgery, rats showing post-surgery neurological deficits or poor grooming were excluded from the experiments. This surgical procedure (i.e., chronic constrictive injury, CCI, or Bennett model) to establish mononeuropathic pain disease model has been described elsewhere (Bennett, G. J. and Xie, Y. K.: A peripheral mononeuropathy in rat that produces disorders of pain sensation like those seen in man. Pain, 33: 87-107, 1988).
On days 1, 3, 4, 7, 9, 11, and 14 after surgery, animals were tested for mechanical allodynia with von Frey filaments as described previously. On or around post-surgical day 14, the ipsilateral hind paw, felt to 5 grams, an indication of allodynia began to manifest mechanical allodynia (i.e., amplified response to non-painful tactile stimulation by von Frey filaments). The contralateral hind paws remained above the 5-gram level (i.e., no allodynia).
After manifestation of this allodynia, Compound 62 (50 mg/kg, p.o.), Compound 63 (50 mg/kg, p.o.), Compound 66 (50 mg/kg, p.o.), Compound 23 (50 mg/kg, p.o.), 4-hydroxy-tempol (TEMPOL, 50 mg/kg, p.o.), or piroxicam (a COX1 inhibitor, 50 mg/kg, p.o.) were administered to randomly-assigned animals. Changes of mechanical allodynia in the ipsilateral hind paw were recorded at several time points over the course of up to 24 hr.

Data set [5] relates to carrageenan-sensitized inflammatory model of rat. Put plainly: Carrageenan-sensitized thermal hyperalgesia (Hargreaves test). The data set is classed as in vivo. Particulars: 30 mg/kg oral, data not shown. How it is done: In this experiment, animals were habituated to the test environment for 2 days. Each rat was individually placed on a transparent perplex glass floor, covered with a plastic box (10×10×18 cm), and allowed 0.5-1 hr to habituate. After the acclimation period, basal thermal withdrawal latency (PWL, time interval between heat stimulation and paw withdrawal) was measured by exposing the plantar surface of a rats hind paw to a beam of radiant heat generated from a focused projection bulb through a transparent perplex glass surface (Hargreaves test; Hargreaves, K. R., Dubner, R., Brown, F., Flores, C. & Joris, J.: A new and sensitive method for measuring thermal nociception in cutaneous hyperalgesia. Pain, 32: 77-88, 1988). The PWL was averaged from at least two trials separated by a 2 min interval. A timer was used to measure the withdrawal latency and a cut of time of 20-sec was used to prevent tissue damage. Before the test on STZ-diabetic rats, the intensity of the radiating heat was adjusted to the level that caused naive animal to withdraw its paw at around 10 seconds.
After a stable basal PWL was obtained, the animals were briefly anesthetized with isoflurane (2-5% to effect). One side of their hind paws received an intraplantar injection of lambda carrageenan (2 mg in 100 microliter sterile saline, Sigma, St. Louis, Mo.). The contralateral side received no injection and served as an intra-subject control. The animals were then returned to their home cages and transferred to the individual testing chambers for heat thermal hyperalgesic testing, 2.5 hr after carrageenan injection. 3-hr post-carrageenan injection, PWLs of both hind paws (i.e., ipsilateral and contralateral) were measured at several time points post-carrageenan injection (15-min to 24-hr).
For compound testing, rats were randomly enrolled into groups that, immediately after the 3-hr post-carrageenan PWL was obtained, received oral dosing of Compound 62 (50 mg/kg), Compound 63 (50 mg/kg), vehicle (1 ml/kg), or indomethacin (30 mg/kg). Compound 62 and Compound 63 were prepared as a suspension in vehicle (96% of 0.5% CMC and 4% of 10% Tween 80) while indomethacin was prepared as a 30 mg/ml in normal saline.

The mark [6] stands for this setting: read-out: Solubility @ pH 7.4 (μg/mL).

Take `O=S(=O)(c1ccccc1/C=[N+](\[O-])Cc1ccccc1)N1CCCc2ccccc21` [Compound 46, N-Benzyl-C-[2-(3,4-dihydro-2H-quinoline-1-sulfonyl)phenyl]nitrone]: in data set [1], the EC50 is over 1000 µM. Further, the solubility in data set [2] (read-out: Solubility @ pH 7.4) was 5.26 µM; in data set [2] (setting [6]), 2.14 µg/mL. Also, in data set [3], the “% of Nitrone Remaining at 30 min (Human)” value is 0%.

For `CC(C)(C)/[N+]([O-])=C/c1cccnc1S(C)(=O)=O` [Compound 73, N-tert-Butyl-C-(2-methanesulfonyl-pyridine-3-yl)nitrone], the EC50 in data set [1] was over 1000 µM. Also, in data set [4], the highest level (Cmax) was 4170 ng/mL, the clearance is 3.33 mL/min/kg, the Vd is 0.8 L/kg and the Tmax was 85.2 min. For the same compound, in data set [4], the bioavailability was determined as 72.2% and the half-life is 166 min. Besides, in data set [2] (read-out: Solubility @ pH 7.4), the solubility was over 11300 µM. Moreover, in data set [2] (setting [6]), the solubility is over 2900 µg/mL. Further, the “% of Nitrone Remaining at 30 min (Human)” value in data set [3] is 100%.

With `CC(C)(C)/[N+]([O-])=C/c1cc2ccccc2nc1S(C)(=O)=O` [Compound 74, N-tert-Butyl-C-(2-methanesulfonyl-quinoline-3-yl)nitrone], the EC50 in data set [1] is over 1000 µM. Further, in data set [4], the Cmax worked out at 12 ng/mL, the clearance was 376 mL/min/kg, the Vd is 10.7 L/kg and the Tmax worked out at 11.4 min. Further, in data set [4], the bioavailability was found to be 9.4% and the half-life was 19.2 min. Moreover, in data set [2] (read-out: Solubility @ pH 7.4), the solubility is 96 µM. In data set [2] (setting [6]), the solubility was 29.4 µg/mL. The “% of Nitrone Remaining at 30 min (Human)” value in data set [3] worked out at 75.7%.

On to `CS(=O)(=O)c1ncccc1/C=[N+](\[O-])Cc1ccccc1` [Compound 75, N-Benzyl-C-(2-methanesulfonyl-pyridine-3-yl)nitrone], for which the EC50 in data set [1] is over 1000 µM. Also, in data set [4], the concentration peaked (Cmax) at 1030 ng/mL, the clearance is 21.8 mL/min/kg, the Vd turned out to be 1.07 L/kg and the Tmax is 11.4 min. Also, in data set [4], the bioavailability was 50.2% and the half-life is 34.2 min. The solubility in data set [2] (read-out: Solubility @ pH 7.4) is 2920 µM. Moreover, the solubility in data set [2] (setting [6]) amounted to 848 µg/mL. For the same compound, the “% of Nitrone Remaining at 30 min (Human)” value in data set [3] turned out to be 95.1%.

Turning to `CS(=O)(=O)c1ncccc1/C=[N+](\[O-])C1CCCCC1` [Compound 76, N-Cyclohexyl-C-(2-methanesulfonyl-pyridine-3-yl)nitrone], the EC50 in data set [1] was over 1000 µM. The values for the solubility in data set [2] (read-out: Solubility @ pH 7.4) and in data set [2] (setting [6]) were over 4070 µM and over 1150 µg/mL, respectively. For the same compound, in data set [3], the “% of Nitrone Remaining at 30 min (Human)” value is reported as 90.5%.

Regarding `CC1(C)CC(O)CC(C)(C)N1[O]` [TEMPOL, 4-hydroxy-tempol, reference compound], the “PWT ipsilateral hind paw (von Frey)” value with CCI rats (post-dosing time 30 min) came to 4.80 ± 0.49 gm; in the data set on CCI rats (post-dosing time 60 min) it was 4.80 ± 0.49 gm; in the data set on CCI rats (post-dosing time 300 min) it was 5.48 ± 1.09 gm; in the data set with CCI rats (post-dosing time 1440 min), 4.80 ± 1.02 gm; with CCI rats (post-dosing time −15 min (pre-dose)), 4.00 ± 0.89 gm. The “anti-allodynic effect on ipsilateral hind paw vs vehicle (in words)” value in the data set on CCI rats was “no significant anti-allodynic effect”.

For the compound `COc1ccc2c(c1)c(CC(=O)O)c(C)n2C(=O)c1ccc(Cl)cc1` [indomethacin, reference compound], the “effect on carrageenan-sensitized heat hyperalgesia (in words)” value in data set [5] was “significantly reversed carrageenan-sensitized heat hyperalgesia”.

For `CN1C(C(=O)Nc2ccccn2)=C(O)c2ccccc2S1(=O)=O` [piroxicam, reference compound], the “anti-allodynic effect on ipsilateral hind paw vs vehicle (in words)” value in the data set on CCI rats was “long-lasting anti-allodynic effect”.
